Assay results taken from patent publication US7524869B2, “Taxanes having a C10 ester substituent” (Florida State University Research Foundation, Inc., priority 2000, dated 2009).

Tested on: HCT116
Test: In vitro cytotoxicity measured by the cell colony formation assay
Assay type: cell-based
Conditions: HCT116 cells, 72 h drug incubation, colonies counted after 7 days; ID50 = drug concentration producing 50% inhibition of colony formation; read-out: IN VITRO ID 50 (nm) HCT116

## CC(=O)O[C@@]12CO[C@@H]1C[C@H](O)[C@@]1(C)C(=O)[C@H](OC(=O)C3CC3)C3=C(C)[C@@H](OC(=O)[C@H](O)[C@@H](NC(=O)c4ccccc4)c4ccncc4)C[C@@](O)([C@@H](OC(=O)c4ccccc4)C12)C3(C)C (some centres unmarked) [Compound 2855]
  IC50: < 1 nM

## CC(=O)O[C@@]12CO[C@@H]1C[C@H](O)[C@@]1(C)C(=O)[C@H](OC(=O)C3CC3)C3=C(C)[C@@H](OC(=O)[C@H](O)[C@@H](NC(=O)c4ccccc4)c4ccc([N+](=O)[O-])cc4)C[C@@](O)([C@@H](OC(=O)c4ccccc4)C12)C3(C)C (some centres unmarked) [Compound 2869]
  IC50: < 10 nM

## CCC(=O)O[C@H]1C(=O)[C@@]2(C)C([C@H](OC(=O)c3ccccc3)[C@]3(O)C[C@H](OC(=O)[C@H](O)[C@@H](NC(=O)c4ccco4)c4cccs4)C(C)=C1C3(C)C)[C@]1(OC(C)=O)CO[C@@H]1C[C@@H]2O (some centres unmarked) [Compound 3053]
  IC50: < 1 nM

## CC(=O)O[C@@]12CO[C@@H]1C[C@H](O)[C@@]1(C)C(=O)[C@H](OC(=O)C3CC3)C3=C(C)[C@@H](OC(=O)[C@H](O)[C@@H](NC(=O)OC(C)C)c4cccs4)C[C@@](O)([C@@H](OC(=O)c4ccccc4)C12)C3(C)C (some centres unmarked) [Compound 3071]
  IC50: < 1 nM

## CC(=O)O[C@@]12CO[C@@H]1C[C@H](O)[C@@]1(C)C(=O)[C@H](OC(=O)C3CC3)C3=C(C)[C@@H](OC(=O)[C@H](O)[C@@H](NC(=O)OCC(C)C)c4ccco4)C[C@@](O)([C@@H](OC(=O)c4ccccc4)C12)C3(C)C (some centres unmarked) [Compound 3102]
  IC50: < 1 nM

## CCCC(=O)O[C@H]1C(=O)[C@@]2(C)C([C@H](OC(=O)c3ccccc3)[C@]3(O)C[C@H](OC(=O)[C@H](O)[C@@H](NC(=O)OCC(C)C)c4ccco4)C(C)=C1C3(C)C)[C@]1(OC(C)=O)CO[C@@H]1C[C@@H]2O (some centres unmarked) [Compound 3110]
  IC50: < 1 nM

## CC(=O)O[C@@]12CO[C@@H]1C[C@H](O)[C@@]1(C)C(=O)[C@H](OC(=O)C3CC3)C3=C(C)[C@@H](OC(=O)[C@H](O)[C@@H](NC(=O)OCC(C)C)c4cccs4)C[C@@](O)([C@@H](OC(=O)c4ccccc4)C12)C3(C)C (some centres unmarked) [Compound 3129]
  IC50: < 10 nM

## CCCC(=O)N[C@@H](c1cccs1)[C@@H](O)C(=O)O[C@H]1C[C@@]2(O)[C@@H](OC(=O)c3ccccc3)C3[C@](C)(C(=O)[C@H](OC(=O)C4CC4)C(=C1C)C2(C)C)[C@@H](O)C[C@H]1OC[C@@]31OC(C)=O (some centres unmarked) [Compound 3132]
  IC50: < 1 nM

## CCCC(=O)N[C@@H](c1cccs1)[C@@H](O)C(=O)O[C@H]1C[C@@]2(O)[C@@H](OC(=O)c3ccccc3)C3[C@](C)(C(=O)[C@H](OC(=O)CCC)C(=C1C)C2(C)C)[C@@H](O)C[C@H]1OC[C@@]31OC(C)=O (some centres unmarked) [Compound 3148]
  IC50: < 1 nM

## CCC(=O)O[C@H]1C(=O)[C@@]2(C)C([C@H](OC(=O)c3ccccc3)[C@]3(O)C[C@H](OC(=O)[C@H](O)[C@@H](NC(=O)OCC(C)C)c4cccs4)C(C)=C1C3(C)C)[C@]1(OC(C)=O)CO[C@@H]1C[C@@H]2O (some centres unmarked) [Compound 3163]
  IC50: < 1 nM

## CCCC(=O)O[C@H]1C(=O)[C@@]2(C)C([C@H](OC(=O)c3ccccc3)[C@]3(O)C[C@H](OC(=O)[C@H](O)[C@@H](NC(=O)c4ccccc4)c4ccco4)C(C)=C1C3(C)C)[C@]1(OC(C)=O)CO[C@@H]1C[C@@H]2O (some centres unmarked) [Compound 3204]
  IC50: < 1 nM

## CCCC(=O)N[C@@H](c1ccco1)[C@@H](O)C(=O)O[C@H]1C[C@@]2(O)[C@@H](OC(=O)c3ccccc3)C3[C@](C)(C(=O)[C@H](OC(=O)CC)C(=C1C)C2(C)C)[C@@H](O)C[C@H]1OC[C@@]31OC(C)=O (some centres unmarked) [Compound 3219]
  IC50: < 1 nM

## CCCC(=O)N[C@@H](c1ccco1)[C@@H](O)C(=O)O[C@H]1C[C@@]2(O)[C@@H](OC(=O)c3ccccc3)C3[C@](C)(C(=O)[C@H](OC(=O)CCC)C(=C1C)C2(C)C)[C@@H](O)C[C@H]1OC[C@@]31OC(C)=O (some centres unmarked) [Compound 3222]
  IC50: < 1 nM

## CCCC(=O)O[C@H]1C(=O)[C@@]2(C)C([C@H](OC(=O)c3ccccc3)[C@]3(O)C[C@H](OC(=O)[C@H](O)[C@@H](NC(=O)c4ccccc4)c4cccs4)C(C)=C1C3(C)C)[C@]1(OC(C)=O)CO[C@@H]1C[C@@H]2O (some centres unmarked) [Compound 3258]
  IC50: < 1 nM

## CCCC(=O)O[C@H]1C(=O)[C@@]2(C)C([C@H](OC(=O)c3ccccc3)[C@]3(O)C[C@H](OC(=O)[C@H](O)[C@@H](NC(=O)OCC(C)C)c4cccs4)C(C)=C1C3(C)C)[C@]1(OC(C)=O)CO[C@@H]1C[C@@H]2O (some centres unmarked) [Compound 3265]
  IC50: < 10 nM

## CC(=O)O[C@@]12CO[C@@H]1C[C@H](O)[C@@]1(C)C(=O)[C@H](OC(=O)C3CC3)C3=C(C)[C@@H](OC(=O)[C@H](O)[C@@H](NC(=O)c4ccco4)c4cccs4)C[C@@](O)([C@@H](OC(=O)c4ccccc4)C12)C3(C)C (some centres unmarked) [Compound 3297]
  IC50: < 1 nM

## CCCC(=O)O[C@H]1C(=O)[C@@]2(C)C([C@H](OC(=O)c3ccccc3)[C@]3(O)C[C@H](OC(=O)[C@H](O)[C@@H](NC(=O)c4ccco4)c4cccs4)C(C)=C1C3(C)C)[C@]1(OC(C)=O)CO[C@@H]1C[C@@H]2O (some centres unmarked) [Compound 3352]
  IC50: < 1 nM

## CCC(=O)O[C@H]1C(=O)[C@@]2(C)C([C@H](OC(=O)c3ccccc3)[C@]3(O)C[C@H](OC(=O)[C@H](O)[C@@H](NC(=O)OC(C)C)c4cccs4)C(C)=C1C3(C)C)[C@]1(OC(C)=O)CO[C@@H]1C[C@@H]2O (some centres unmarked) [Compound 3361]
  IC50: < 1 nM

## CCOC(=O)N[C@@H](c1cccs1)[C@@H](O)C(=O)O[C@H]1C[C@@]2(O)[C@@H](OC(=O)c3ccccc3)C3[C@](C)(C(=O)[C@H](OC(=O)CC)C(=C1C)C2(C)C)[C@@H](O)C[C@H]1OC[C@@]31OC(C)=O (some centres unmarked) [Compound 3370]
  IC50: < 1 nM

## CCCC(=O)O[C@H]1C(=O)[C@@]2(C)C([C@H](OC(=O)c3ccccc3)[C@]3(O)C[C@H](OC(=O)[C@H](O)[C@@H](NC(=O)c4cccs4)c4cccs4)C(C)=C1C3(C)C)[C@]1(OC(C)=O)CO[C@@H]1C[C@@H]2O (some centres unmarked) [Compound 3408]
  IC50: < 1 nM

## CCCC(=O)O[C@H]1C(=O)[C@@]2(C)C([C@H](OC(=O)c3ccccc3)[C@]3(O)C[C@H](OC(=O)[C@H](O)[C@@H](NC(=O)OC(C)C)c4ccco4)C(C)=C1C3(C)C)[C@]1(OC(C)=O)CO[C@@H]1C[C@@H]2O (some centres unmarked) [Compound 3417]
  IC50: < 1 nM

## CCC(=O)O[C@H]1C(=O)[C@@]2(C)C([C@H](OC(=O)c3ccccc3)[C@]3(O)C[C@H](OC(=O)[C@H](O)[C@@H](NC(=O)c4cccs4)c4cccs4)C(C)=C1C3(C)C)[C@]1(OC(C)=O)CO[C@@H]1C[C@@H]2O (some centres unmarked) [Compound 3425]
  IC50: < 1 nM

## CC(=O)O[C@@]12CO[C@@H]1C[C@H](O)[C@@]1(C)C(=O)[C@H](OC(=O)C3CC3)C3=C(C)[C@@H](OC(=O)[C@H](O)[C@@H](NC(=O)c4cccs4)c4cccs4)C[C@@](O)([C@@H](OC(=O)c4ccccc4)C12)C3(C)C (some centres unmarked) [Compound 3453]
  IC50: < 1 nM

## CCCC(=O)O[C@H]1C(=O)[C@@]2(C)C([C@H](OC(=O)c3ccccc3)[C@]3(O)C[C@H](OC(=O)[C@H](O)[C@@H](NC(=O)c4ccccc4)C4CC4)C(C)=C1C3(C)C)[C@]1(OC(C)=O)CO[C@@H]1C[C@@H]2O (some centres unmarked) [Compound 3482]
  IC50: < 1 nM

## C/C=C/C(=O)N[C@@H](c1cccs1)[C@@H](O)C(=O)O[C@H]1C[C@@]2(O)[C@@H](OC(=O)c3ccccc3)C3[C@](C)(C(=O)[C@H](OC(=O)CC)C(=C1C)C2(C)C)[C@@H](O)C[C@H]1OC[C@@]31OC(C)=O (some centres unmarked) [Compound 3494]
  IC50: < 1 nM

## C/C=C/C(=O)N[C@@H](c1cccs1)[C@@H](O)C(=O)O[C@H]1C[C@@]2(O)[C@@H](OC(=O)c3ccccc3)C3[C@](C)(C(=O)[C@H](OC(=O)C4CC4)C(=C1C)C2(C)C)[C@@H](O)C[C@H]1OC[C@@]31OC(C)=O (some centres unmarked) [Compound 3513]
  IC50: < 1 nM

## CCC(=O)O[C@H]1C(=O)[C@@]2(C)C([C@H](OC(=O)c3ccccc3)[C@]3(O)C[C@H](OC(=O)[C@H](O)[C@@H](NC(=O)OC(C)C)c4ccco4)C(C)=C1C3(C)C)[C@]1(OC(C)=O)CO[C@@H]1C[C@@H]2O (some centres unmarked) [Compound 3522]
  IC50: < 1 nM

## CCOC(=O)N[C@@H](c1ccco1)[C@@H](O)C(=O)O[C@H]1C[C@@]2(O)[C@@H](OC(=O)c3ccccc3)C3[C@](C)(C(=O)[C@H](OC(=O)CC)C(=C1C)C2(C)C)[C@@H](O)C[C@H]1OC[C@@]31OC(C)=O (some centres unmarked) [Compound 3535]
  IC50: < 1 nM

## C/C=C/C(=O)N[C@@H](c1cccs1)[C@@H](O)C(=O)O[C@H]1C[C@@]2(O)[C@@H](OC(=O)c3ccccc3)C3[C@](C)(C(=O)[C@H](OC(=O)CCC)C(=C1C)C2(C)C)[C@@H](O)C[C@H]1OC[C@@]31OC(C)=O (some centres unmarked) [Compound 3595]
  IC50: < 1 nM

## CCC(=O)O[C@H]1C(=O)[C@@]2(C)C([C@H](OC(=O)c3ccccc3)[C@]3(O)C[C@H](OC(=O)[C@H](O)[C@@H](NC(=O)c4cccs4)c4ccco4)C(C)=C1C3(C)C)[C@]1(OC(C)=O)CO[C@@H]1C[C@@H]2O (some centres unmarked) [Compound 3644]
  IC50: < 1 nM

## CCCC(=O)O[C@H]1C(=O)[C@@]2(C)C([C@H](OC(=O)c3ccccc3)[C@]3(O)C[C@H](OC(=O)[C@H](O)[C@@H](NC(=O)c4cccs4)c4ccco4)C(C)=C1C3(C)C)[C@]1(OC(C)=O)CO[C@@H]1C[C@@H]2O (some centres unmarked) [Compound 3656]
  IC50: < 1 nM

## CC(=O)O[C@@]12CO[C@@H]1C[C@H](O)[C@@]1(C)C(=O)[C@H](OC(=O)C3CC3)C3=C(C)[C@@H](OC(=O)[C@H](O)[C@@H](NC(=O)c4cccs4)c4ccco4)C[C@@](O)([C@@H](OC(=O)c4ccccc4)C12)C3(C)C (some centres unmarked) [Compound 3663]
  IC50: < 1 nM

## CCOC(=O)N[C@@H](c1ccco1)[C@@H](O)C(=O)O[C@H]1C[C@@]2(O)[C@@H](OC(=O)c3ccccc3)C3[C@](C)(C(=O)[C@H](OC(=O)C4CC4)C(=C1C)C2(C)C)[C@@H](O)C[C@H]1OC[C@@]31OC(C)=O (some centres unmarked) [Compound 3677]
  IC50: < 1 nM

## CCCC(=O)O[C@H]1C(=O)[C@@]2(C)C([C@H](OC(=O)c3ccccc3)[C@]3(O)C[C@H](OC(=O)[C@H](O)[C@@H](NC(=O)c4ccco4)c4ccco4)C(C)=C1C3(C)C)[C@]1(OC(C)=O)CO[C@@H]1C[C@@H]2O (some centres unmarked) [Compound 3686]
  IC50: < 1 nM

## CCCC(=O)O[C@H]1C(=O)[C@@]2(C)C([C@H](OC(=O)c3ccccc3)[C@]3(O)C[C@H](OC(=O)[C@H](O)[C@@H](NC(=O)OCC)c4ccco4)C(C)=C1C3(C)C)[C@]1(OC(C)=O)CO[C@@H]1C[C@@H]2O (some centres unmarked) [Compound 3693]
  IC50: < 1 nM
